This note sets out measurements from paper PMC5988692, “AZ304, a novel dual BRAF inhibitor, exerts anti-tumour effects in colorectal cancer independently of BRAF genetic status” (British Journal of Cancer, 2018).

Experiment [1] addresses CSK (Homo sapiens, UniProt P41240). Nature of the experiment: Sandwich ELISA kinase assay. The settings on record: ATP Km. The class given is biochemical. As to the method:
(§1) For RAF kinases, detailed assay information was described in ref.[18] Briefly, the kinase activity of BRAF WT, BRAF V600E, or CRAF was measured using an AlphaScreen assay (Perkin Elmer, MA) monitoring MEK1/2 phosphorylation at Ser217/221. For CDK2 and CDK4 kinases, activity was also measured by AlphaScreen, monitoring phosphorylation of biotin Rb peptide at Ser780. Similarly, MAP3K7, CSF1R and JAK2 kinase activity was measured by phosphorylation of their biotinylated substrates MKK6 kinase dead protein at Ser271/Thr275, or tyrosine phosphorylation of pEY or Tyk2 Tyr1054/1055 peptides, respectively. CSK, IGF1R, EGFR, FGFR1 and SRC kinase activity was measured using a sandwich ELISA detecting phosphorylated poly EAY peptide with a HRP conjugated phosphotyrosine antibody and TMB substrate, while p38 kinase activity was measured by monitoring phosphorylation of MBP protein with radiolabeled ^33P-ATP in a filter binding format. All assays were screened under respective ATP Km conditions and inhibitor IC50s were derived from either 5 (RAF kinases, CDK2, CDK4, MAP3K7, JAK2), 10 (CSK, IGF1R, EGFR, FGFR1, SRC) or 11 (p38, CSF1R) point compound dose response.
(In an ELISA, binding on a coated surface is turned into a signal by an enzyme label.)

Experiment [2] addresses EGFR (Homo sapiens, UniProt P00533). Nature of the experiment: Sandwich ELISA kinase assay. The class given is biochemical. The settings on record: ATP Km. As to the method: as §1
In experiment [3] the target is FGFR (Homo sapiens, UniProt P11362). The experiment is described as follows: Sandwich ELISA kinase assay. The class given is biochemical. The settings on record: ATP Km. As to the method: as §1
For experiment [4], the target named is IGF1R (Homo sapiens, UniProt P08069). The experiment is described as follows: Sandwich ELISA kinase assay. The class given is biochemical. The settings on record: ATP Km. As to the method: as §1
The target of experiment [5] is SRC (Homo sapiens, UniProt P12931). The experiment is described as follows: Sandwich ELISA kinase assay. The settings on record: ATP Km. The format is biochemical. As to the method: as §1
Experiment [6] relates to p-ERK in A375 cells. The experiment is described as follows: A375 p-ERK cellular assay. The format is cell-based. The settings on record: Homo sapiens, A-375, 1.25 h; A375 (V600E mutant BRAF melanoma), 75 min; read-out: mean EC50, reduction of ERK phosphorylation (p-ERK). As to the method: A375 cells were seeded into 96-well micro plates (Costar, Corning, and Lowell, MA) at […] in phenol red free DMEM (Invitrogen, Carlsbad, CA) supplemented with 10% foetal bovine serum. After 48 h, the cells were treated with DMSO or multiple concentrations of AZ304 and then returned to the incubator for 75 min. Medium were then aspirated and cells were fixed with a 6% formaldehyde solution for 20 min at room temperature. Cells were washed once with PBS containing 0.05% Triton X-100 (PBST) and 0.6% hydrogen peroxide added for 20 min at room temperature. After washing again in PBST, cells were blocked with 10% FBS/PBST solution for 1 h at room temperature. After washing, p-ERK monoclonal antibody was added and the plates were placed at 4 °C for overnight. […] Quantification of signal was determined at OD405 using a SpectraMax plate reader (Molecular Devices, Sunnyvale, CA). […] EC50 was calculated using XLift.
(§2) Cells were incubated with DMSO or AZ304 for 75 min and p-ERK levels were determined using a p-ERK antibody based ELISA. […] Cells were incubated with DMSO or AZ304 (±EGF) for 75 min and p-ERK levels were determined using a p-ERK antibody based ELISA. […]

The test system of experiment [7] is panel of human cancer cell lines with different BRAF and RAS genetic statuses. Nature of the experiment: Cell proliferation assay, ranges over the cell panel. The class given is cell-based. The settings on record: 72 h, 3 days, read-out: GI50 values, range. As to the method:
The proliferation assays against a cell panel were performed as described in ref.[18] Briefly, the cells were treated with DMSO or multiple concentrations of AZ304 for 3 days. The cell growth was determined using the CellTiter 96 Aqueous One Cell Proliferation Assay (Promega, Madison, WI). […] The assays were done in triplicate across different plates.
Anti-proliferative activity of AZ304 against a panel of cell lines with different BRAF and RAS genetic status. […] Cell growth was determined by MTS assay.

Experiment [8] deals with A549 cells. Nature of the experiment: Western blot p-ERK and p-p38. The format is cell-based, human. As to the method: (§3) For western-blotting in A375, A549 and MC-F7 cell lines, the detailed method was described in ref.[18] […] For western-blot in selected CRC cell lines, the cells were collected after treatment for indicated time and washed twice with cold PBS. Then cells were lysed in 1% Triton lysis buffer (50 mmol/L Tris-HCl, pH 7.4, 10 mmol/L EDTA, 100 mmol/L NaF, 150 mmol/L NaCl, 1% Triton X-100, 1 mmol/L PMSF 1 mmol/L Na3VO4 and 2 μg/mL aprotinin). After sonication and centrifugation, samples were quantified with the Lowry method. Next, all the protein samples were boiled at 95 °C for 5 min with 3× sampling buffer. After that, all the lysate samples were resolved by SDS polyacrylamide gel electrophoresis (SDS-PAGE) and followed by western blotting which means electronically transferred to nitrocellulose membranes. After blocking with 5% skim milk in TBST buffer (10 mM Tris-HCl pH 7.4, 150 mM NaCl, 0.1% Tween 20) at room temperature for 1 h, the blots were incubated with indicated antibodies shaking for 2 h, then overnight at 4 °C. Then the blots were washed four times with TBST buffer, and then incubated with secondary antibodies for 30 min at room temperature. After washing for another four times, the protein bands were detected with enhanced chemiluminescence reagent (SuperSignal Western Pico Chemiluminescent Substrate; Pierce, Rockford, IL, USA) and visualised with the Electrophoresis Gel Imaging Analysis System (DNR Bio-Imaging Systems, Jerusalem, Israel).
(§4) Cells were incubated with DMSO or AZ304 for 75 min and p-ERK levels were determined using a p-ERK antibody based ELISA. […] Cells were incubated with DMSO or AZ304 (±EGF) for 75 min and p-ERK levels were determined using a p-ERK antibody based ELISA. […] (A375: BRAF V600E, A549: RAS MT; MC-F7: BRAF/RAS WT)
On the technique in general: In western blotting, separated proteins are transferred to a membrane and probed.

Experiment [9] concerns MC-F7 cells. Nature of the experiment: Western blot p-ERK and p-p38. The format is cell-based, human. The settings on record: MC-F7 (BRAF/RAS WT). As to the method: as §3, §4
Experiment [10] has as its system A375 cells. The experiment is described as follows: Western blot p-p38. The format is cell-based, human. The settings on record: A375 (BRAF V600E), 75 min. As to the method: as §3, with “After blocking with 5% skim milk in TBST buffer (10 mM Tris-HCl pH 7.4, 150 mM NaCl, 0.1% Tween 20) at room temperature for 1 h, the blots were incubated with indicated antibodies shaking for 2 h, then overnight at 4 °C. Then the blots were washed four times with TBST buffer, and then incubated with secondary antibodies for 30 min at room temperature.” left out
as §2

Read-outs that look alike come from different tables or passages of the source.

For orientation: IC50 means the concentration that inhibits the measured activity by half. Read a high IC50 as weaker potency. In general, EC50 refers to the midpoint of the concentration-response curve. A word on the GI50: it is the concentration that inhibits growth by half.

CSK, sequence (P41240 whole entry, species assumed): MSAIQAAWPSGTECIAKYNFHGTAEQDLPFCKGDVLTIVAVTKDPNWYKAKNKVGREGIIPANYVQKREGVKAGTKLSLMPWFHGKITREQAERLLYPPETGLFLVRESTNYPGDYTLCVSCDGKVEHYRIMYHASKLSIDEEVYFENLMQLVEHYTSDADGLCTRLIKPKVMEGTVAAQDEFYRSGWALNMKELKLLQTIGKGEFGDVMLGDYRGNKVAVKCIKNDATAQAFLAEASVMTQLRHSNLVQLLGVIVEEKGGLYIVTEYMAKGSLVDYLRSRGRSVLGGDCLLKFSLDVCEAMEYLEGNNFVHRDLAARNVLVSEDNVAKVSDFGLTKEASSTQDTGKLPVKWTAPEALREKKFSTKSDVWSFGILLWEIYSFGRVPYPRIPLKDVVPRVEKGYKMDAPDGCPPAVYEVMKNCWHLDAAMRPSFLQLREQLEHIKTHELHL
FGFR, sequence (P11362 22-822): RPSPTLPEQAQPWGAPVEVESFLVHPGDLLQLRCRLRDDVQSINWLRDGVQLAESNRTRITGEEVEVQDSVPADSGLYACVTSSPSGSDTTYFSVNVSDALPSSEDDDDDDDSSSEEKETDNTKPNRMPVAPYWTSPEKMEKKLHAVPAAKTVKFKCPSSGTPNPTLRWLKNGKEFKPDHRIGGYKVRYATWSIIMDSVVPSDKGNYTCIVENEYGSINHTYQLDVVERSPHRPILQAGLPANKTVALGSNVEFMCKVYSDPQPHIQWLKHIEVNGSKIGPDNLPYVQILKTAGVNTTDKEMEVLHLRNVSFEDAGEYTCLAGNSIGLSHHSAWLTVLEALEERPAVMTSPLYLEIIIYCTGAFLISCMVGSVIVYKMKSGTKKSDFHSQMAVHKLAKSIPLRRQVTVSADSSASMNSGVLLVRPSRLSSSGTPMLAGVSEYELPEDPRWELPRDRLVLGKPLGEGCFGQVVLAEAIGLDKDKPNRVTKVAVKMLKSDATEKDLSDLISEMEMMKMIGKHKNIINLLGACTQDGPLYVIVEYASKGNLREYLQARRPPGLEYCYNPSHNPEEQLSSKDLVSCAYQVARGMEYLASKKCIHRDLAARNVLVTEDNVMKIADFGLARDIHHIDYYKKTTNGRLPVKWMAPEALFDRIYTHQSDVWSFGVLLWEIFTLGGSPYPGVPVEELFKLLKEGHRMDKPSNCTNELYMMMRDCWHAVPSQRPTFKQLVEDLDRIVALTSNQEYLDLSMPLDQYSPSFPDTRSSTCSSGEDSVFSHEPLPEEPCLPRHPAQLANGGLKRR
IGF1R, sequence (P08069 31-1367, species assumed): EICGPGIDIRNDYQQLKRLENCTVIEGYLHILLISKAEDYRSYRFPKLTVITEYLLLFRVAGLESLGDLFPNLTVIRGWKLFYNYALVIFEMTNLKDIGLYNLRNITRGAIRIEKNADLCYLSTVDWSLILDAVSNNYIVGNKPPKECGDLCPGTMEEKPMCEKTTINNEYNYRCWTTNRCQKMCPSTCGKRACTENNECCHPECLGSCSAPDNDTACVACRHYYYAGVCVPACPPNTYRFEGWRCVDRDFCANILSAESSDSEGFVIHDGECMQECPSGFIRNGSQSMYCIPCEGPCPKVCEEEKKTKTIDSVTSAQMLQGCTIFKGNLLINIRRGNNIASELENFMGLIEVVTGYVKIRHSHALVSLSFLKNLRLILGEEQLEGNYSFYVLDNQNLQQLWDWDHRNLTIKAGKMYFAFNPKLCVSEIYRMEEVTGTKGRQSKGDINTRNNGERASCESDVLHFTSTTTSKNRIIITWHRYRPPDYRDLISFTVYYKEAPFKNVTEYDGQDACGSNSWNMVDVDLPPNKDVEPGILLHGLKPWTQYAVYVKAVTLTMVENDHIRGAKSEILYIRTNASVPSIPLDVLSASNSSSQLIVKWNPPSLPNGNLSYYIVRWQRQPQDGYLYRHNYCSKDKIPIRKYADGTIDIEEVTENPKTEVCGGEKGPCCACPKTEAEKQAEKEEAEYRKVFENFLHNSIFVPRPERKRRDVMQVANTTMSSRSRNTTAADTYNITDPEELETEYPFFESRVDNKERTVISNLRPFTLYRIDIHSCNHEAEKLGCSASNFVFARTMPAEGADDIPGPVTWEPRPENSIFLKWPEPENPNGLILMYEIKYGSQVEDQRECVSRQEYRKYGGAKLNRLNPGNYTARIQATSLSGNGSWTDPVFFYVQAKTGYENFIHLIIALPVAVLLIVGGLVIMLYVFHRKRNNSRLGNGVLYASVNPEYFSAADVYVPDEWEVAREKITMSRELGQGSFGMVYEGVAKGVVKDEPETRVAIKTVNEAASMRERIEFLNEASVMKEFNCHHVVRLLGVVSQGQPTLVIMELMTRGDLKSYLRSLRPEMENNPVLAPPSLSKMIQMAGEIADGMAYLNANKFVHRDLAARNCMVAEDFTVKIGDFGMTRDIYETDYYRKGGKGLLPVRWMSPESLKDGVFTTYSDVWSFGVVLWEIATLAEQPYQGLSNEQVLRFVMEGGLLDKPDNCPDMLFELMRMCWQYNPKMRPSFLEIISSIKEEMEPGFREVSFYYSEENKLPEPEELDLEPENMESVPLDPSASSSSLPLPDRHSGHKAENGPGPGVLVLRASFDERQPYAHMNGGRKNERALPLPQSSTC
SRC, sequence (P12931 whole entry, species assumed): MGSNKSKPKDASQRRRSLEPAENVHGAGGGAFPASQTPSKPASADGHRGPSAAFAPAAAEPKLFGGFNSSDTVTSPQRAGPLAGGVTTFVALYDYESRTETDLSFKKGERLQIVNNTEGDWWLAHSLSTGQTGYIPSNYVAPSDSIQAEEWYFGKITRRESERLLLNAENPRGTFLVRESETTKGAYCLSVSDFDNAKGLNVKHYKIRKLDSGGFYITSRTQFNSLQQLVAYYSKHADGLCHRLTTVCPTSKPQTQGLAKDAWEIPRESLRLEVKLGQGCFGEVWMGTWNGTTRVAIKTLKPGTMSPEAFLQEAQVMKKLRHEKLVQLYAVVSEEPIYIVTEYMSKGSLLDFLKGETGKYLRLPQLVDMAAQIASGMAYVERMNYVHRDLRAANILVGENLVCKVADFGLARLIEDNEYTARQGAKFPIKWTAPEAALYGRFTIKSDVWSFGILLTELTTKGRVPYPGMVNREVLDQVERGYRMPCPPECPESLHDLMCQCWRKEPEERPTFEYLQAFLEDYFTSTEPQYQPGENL
EGFR, sequence (P00533 25-1210, species assumed): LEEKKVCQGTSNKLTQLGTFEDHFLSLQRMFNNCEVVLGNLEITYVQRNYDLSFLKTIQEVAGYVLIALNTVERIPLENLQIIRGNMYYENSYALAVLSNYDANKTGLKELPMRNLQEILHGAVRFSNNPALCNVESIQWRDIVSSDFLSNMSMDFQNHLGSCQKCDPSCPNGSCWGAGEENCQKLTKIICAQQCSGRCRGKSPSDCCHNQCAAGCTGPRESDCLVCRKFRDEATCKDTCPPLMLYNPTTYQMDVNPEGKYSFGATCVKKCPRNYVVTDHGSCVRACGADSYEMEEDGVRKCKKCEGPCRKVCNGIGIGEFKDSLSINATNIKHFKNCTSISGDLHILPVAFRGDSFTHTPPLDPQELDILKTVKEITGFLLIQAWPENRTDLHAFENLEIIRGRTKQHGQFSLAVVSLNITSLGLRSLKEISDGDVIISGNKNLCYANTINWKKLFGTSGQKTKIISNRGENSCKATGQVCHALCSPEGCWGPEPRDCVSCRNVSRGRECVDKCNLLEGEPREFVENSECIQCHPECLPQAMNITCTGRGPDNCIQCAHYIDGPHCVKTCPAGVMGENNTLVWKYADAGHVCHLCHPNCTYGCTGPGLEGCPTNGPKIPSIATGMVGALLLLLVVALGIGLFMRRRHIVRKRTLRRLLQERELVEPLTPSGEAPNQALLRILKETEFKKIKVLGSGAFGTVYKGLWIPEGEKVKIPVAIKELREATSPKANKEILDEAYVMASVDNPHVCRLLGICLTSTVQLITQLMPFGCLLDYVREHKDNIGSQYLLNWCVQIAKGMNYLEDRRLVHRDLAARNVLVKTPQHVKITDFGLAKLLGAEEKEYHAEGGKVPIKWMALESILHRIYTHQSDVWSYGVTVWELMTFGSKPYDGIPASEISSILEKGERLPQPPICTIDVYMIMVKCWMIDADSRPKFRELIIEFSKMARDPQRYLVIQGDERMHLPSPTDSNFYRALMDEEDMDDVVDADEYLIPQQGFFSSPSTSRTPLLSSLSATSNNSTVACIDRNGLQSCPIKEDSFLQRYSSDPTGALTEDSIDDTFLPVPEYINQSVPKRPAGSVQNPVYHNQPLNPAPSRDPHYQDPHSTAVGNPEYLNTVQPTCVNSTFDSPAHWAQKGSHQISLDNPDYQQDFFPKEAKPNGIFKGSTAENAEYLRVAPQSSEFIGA

Consider `COc1ccc2c(Nc3cc(NC(=O)c4cccc(C(C)(C)C#N)c4)ccc3C)ncnc2c1` [AZ304], for which the IC50 in experiment [1] was 7.05 µM; in experiment [2], greater than 10 µM; in experiment [3], greater than 10 µM; in experiment [4] it was greater than 10 µM; in [5] it was greater than 10 µM. Moreover, the concentration giving a half-maximal response (EC50) in [6] turned out to be 0.065 µM. Besides, the GI50 in experiment [7] (mutant BRAF cell lines) is 0.08 to 7.72 µM; in experiment [7] (mutant RAS cell lines), 0.9 to 16.7 µM; in experiment [7] (wild type BRAF/RAS cell lines), 0.43 to 11.7 µM. Moreover, the “effect on p-p38” value is reported as “potently inhibited p-p38” in experiment [8] (A549 (RAS MT), 75 min); “potently inhibited p-p38” in experiment [9] (75 min); “potently inhibited p-p38” in experiment [10]. The “effect on p-ERK” value in experiment [8] (A549 (wild type BRAF, RAS MT), 75 min, 0.1, 1, 10 and 100 fold of A375 p-ERK EC50) is given as “concentration dependent reduction of p-ERK”; in [9] (75 min, 0.1, 1, 10 and 100 fold of A375 p-ERK EC50), “concentration dependent reduction of p-ERK”.
